3 molecules from patent publication US8592431B2, “Fused ring compound and use thereof” (Takeda Pharmaceutical Company Limited, priority 2009, dated 2013) can be followed below.

In one assay the test system is Male SHRs. The assay is described as follows: Antihypertensive effect: mean blood pressure in SHRs after oral administration. The note with it: SHR, during 24 hours after administration. The assay is classed as in vivo, rat. The procedure: Male SHRs (28-40 weeks old, Japan SLC, Inc., Japan) were anesthetized with sodium pentobarbital (50 mg/kg, i.p.). The left femoral artery was cannulated with a polyethylene catheter filled with saline comprising heparin (200 U/mL). The catheter was exteriorized at the back of the neck and each SHR was individually housed in a cage and left two or four days to recover. The mean blood pressure (MBP) was obtained from the systemic blood pressure which was monitored from the femoral artery using a pressure transducer connected to a polygraph system (Nihon Kohden Corporation). The heart rate was measured from the blood pressure pulse intervals. The rats which had MBP over 150 mmHg were used for the experiment. When the blood pressure had stabilized, vehicle (0.5 w/v % methylcellulose) or compounds were orally administered. All compounds were suspended in 0.5 w/v % methylcellulose and orally administered at a volume of 2 mL/kg. The MBP was measured during 24 hours after the administration.

Another assay has as its system Male Wistar fatty rats. The assay is described as follows: Plasma triglyceride and glucose lowering in Wistar fatty rats, oral, once a day for 2 weeks. Type of assay: in vivo, rat. The note with it: versus vehicle group. The procedure:
Male 25-31 weeks-old Wistar fatty rats (Takeda Pharmaceutical Company) were divided to each group with equalization of plasma levels of triglyceride, glucose and body weight in fed condition. The groups of rats were treated with vehicle (0.5 w/v % methylcellulose) or compounds. All compounds were suspended in 0.5 w/v % methylcellulose and orally administered at a volume of 2 mL/kg, once a day for 2 weeks. The next day of the final administration, blood was collected from the tail vein to measure plasma parameters. Heparin was used as an anticoagulant. Plasma levels of triglyceride and glucose were measured enzymatically using Hitachi Autoanalyser 9000. The inhibition rates from vehicle treatment group were calculated for each compound after the treatment for 2 weeks.

The next assay deals with human AT1 receptor (Homo sapiens (Human), UniProt P30556). Description: AT1 receptor antagonistic activity: [125I]-angiotensin II binding assay with AT1 membrane. The following applies: 22.5 pM [125I]-angiotensin II, human AT1 receptor-expressing CHO-K1 membrane, 1 hr room temperature. The procedure:
Evaluation of AT1 Receptor Antagonistic Activity
(1) Preparation of Human AT1 Receptor-Expressing CHO-K1 Cellular Membrane Fraction
CHO-K1 cell (RIKEN, Japan) capable of stable expression of human AT1 receptor was cultured, recovered, suspended in homogenize buffer (10 mM NaHCO3 (pH 7.4), 5 mM EDTA, 1× Complete EDTA free) [manufactured by Roche, Switzerland], and homogenized. The homogenate was centrifuged at low-speed (900×g, 10 min, 4° C.), and the supernatant was recovered and ultracentrifuged (90,000×g, 1 hr, 4° C.). The supernatant was discarded, and the pellets were resuspended in suspension buffer (50 mM Tris (pH 7.4), 1 mM EDTA, 1× Complete EDTA free).
(2) Evaluation of AT1 Receptor Antagonistic Activity
(9 μg) in the presence of AT1 membrane and test compound in 100 μL (total reaction volume) of reaction buffer (50 mM Tris (pH 7.4), 10 mM MgCl2 supplemented or not supplemented with 0.3 mg/mL fatty acid-free bovine serum albumin [manufactured by Wako Pure Chemical Industries, Ltd., Japan]). The reaction mixture was incubated in 96 well polypropylene plate for 1 hr at room temperature, and the reaction was quenched by rapid filtration (96 well cell harvester) through a GF/C filter treated with wash buffer (50 mM Tris (pH 7.4)). Subsequently, the filter was washed 5 times with 0.3 mL of ice-cooled wash buffer. […] Total binding was measured in the presence of 1% DMSO and nonspecific binding was measured in the presence of 1 μM Candesartan.

Setting [1] is: 10 mg/kg once a day for 2 weeks.
[2] abbreviates: 30 mg/kg once a day for 2 weeks.

human AT1 receptor, sequence (P30556 whole entry): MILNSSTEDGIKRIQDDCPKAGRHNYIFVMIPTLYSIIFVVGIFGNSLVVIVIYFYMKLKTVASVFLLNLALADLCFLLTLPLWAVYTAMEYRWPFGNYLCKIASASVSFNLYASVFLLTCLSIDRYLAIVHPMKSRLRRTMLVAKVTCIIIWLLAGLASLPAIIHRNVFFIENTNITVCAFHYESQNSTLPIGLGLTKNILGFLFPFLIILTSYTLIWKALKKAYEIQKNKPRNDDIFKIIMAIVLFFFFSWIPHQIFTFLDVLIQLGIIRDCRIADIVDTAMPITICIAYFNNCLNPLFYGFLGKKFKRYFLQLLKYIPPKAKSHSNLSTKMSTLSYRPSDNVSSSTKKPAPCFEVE

For `CCCc1c(Cc2ccc(-c3ccccc3-c3noc(=O)[nH]3)cc2F)c(=O)n(C2CCC(OC(C)C(C)(C)O)CC2)c2ncnn12` (single isomer, unassigned; (+)) [Example 458, hydrate], the “Maximum MBP reduction (mmHg)” value in the assay on Male SHRs (dose 30 mg/kg) is on record as 70 mmHg. For the same molecule, the results for the “Inhibition rate of plasma glucose (%)” value in the assay with Male Wistar fatty rats (3 mg/kg once a day for 2 weeks), in the assay with Male Wistar fatty rats (setting [1]) and in the assay with Male Wistar fatty rats (setting [2]) were −0.2%, 6.9% and 43.3%, respectively. For the same molecule, the “Inhibition rate of plasma triglyceride (%)” value was determined as 33.5% in the assay with Male Wistar fatty rats (3 mg/kg once a day for 2 weeks), 39.0% in the assay with Male Wistar fatty rats (setting [1]) and 59.2% with Male Wistar fatty rats (setting [2]).

In the case of `CCCc1c(Cc2ccc(-c3ccccc3-c3noc(=O)[nH]3)cc2)c(=O)n([C@H]2CC[C@H](OCC(C)(C)O)CC2)c2ccnn12` [Example 413, 4-[trans-4-(2-Hydroxy-2-methylpropoxy)cyclohexyl]-6-{[2′-(5-oxo-4,5-dihydro-1,2,4-oxadiazol-3-yl)biphenyl-4-yl]methyl}-7-propylpyrazolo[1,5-a]pyrimidin-5(4H)-one], the “Maximum MBP reduction (mmHg)” value in the assay on Male SHRs (dose 10 mg/kg) was 79 mmHg. For the same molecule, the half-inhibitory concentration (IC50) on human AT1 receptor turned out to be 1.6 nM. In addition, the “Inhibition rate of plasma glucose (%)” value with Male Wistar fatty rats (3 mg/kg once a day for 2 weeks) is 6.5%; with Male Wistar fatty rats (setting [1]), 19.1%; in the assay on Male Wistar fatty rats (setting [2]), 53.3%. The “Inhibition rate of plasma triglyceride (%)” value with Male Wistar fatty rats (3 mg/kg once a day for 2 weeks) stood at 12.0%; in the assay on Male Wistar fatty rats (setting [1]) it was 21.5%; in the assay with Male Wistar fatty rats (setting [2]), 46.0%.

As for `CCCc1c(Cc2ccc(-c3ccccc3-c3noc(=O)[nH]3)cc2)c(=O)n([C@H]2CC[C@H](OCC(C)(C)O)CC2)c2ccnn12.[K]` [Example 415, 4-[trans-4-(2-hydroxy-2-methylpropoxy)cyclohexyl]-6-{[2′-(5-oxo-4,5-dihydro-1,2,4-oxadiazol-3-yl)biphenyl-4-yl]methyl}-7-propylpyrazolo[1,5-a]pyrimidin-5(4H)-one potassium salt], the “Maximum MBP reduction (mmHg)” value in the assay with Male SHRs (dose 3 mg/kg) is listed as 63 mmHg. In the assay on Male Wistar fatty rats (3 mg/kg once a day for 2 weeks), the “Inhibition rate of plasma glucose (%)” value came to 25.1% and the “Inhibition rate of plasma triglyceride (%)” value turned out to be 38.1%. In addition, in the assay with Male Wistar fatty rats (setting [1]), the “Inhibition rate of plasma glucose (%)” value is given as 54.3% and the “Inhibition rate of plasma triglyceride (%)” value was found to be 57.7%.

Usually IC50 stands for the concentration needed to halve the response being measured. A low value points to greater potency.
